Measurements reported in patent US7157481B2 (priority 1997, dated 2007).

Key:
[1] = system: larvae of the mustard beetle (Phaedon cochleariae); assay: Phaedon Larvae Test; format: in vivo; details: cabbage leaves dipped, 0.1 % by weight active compound; after 7 days
Description: (§1) To produce a suitable preparation of active compound, 1 part by weight of active compound is mixed with the stated amounts of solvent and emulsifier, and the concentrate is diluted with water to the desired concentration.
Cabbage leaves (Brassica oleracea) are treated by being dipped into the preparation of active compound of the desired concentration and populated with larvae of the mustard beetle (Phaedon cochleariae) while the leaves are still moist.
After 7 days, the kill is determined and expressed in per cent. An efficacy of 100% means that all beetle larvae have been killed, while an efficacy of 0% means that no beetle larvae have been killed.

[2] = log P determination by HPLC (EEC Directive 79/831 Annex V. A8, gradient method); format: physicochemical; details: acetonitrile/0.1% aqueous phosphoric acid
[3] = system: caterpillars of the diamond-back moth (Plutella xylostella); assay: Plutella Test; format: in vivo; details: cabbage leaves dipped, 0.1 % by weight active compound; after 7 days
Description: as §1
Cabbage leaves (Brassica oleracea) are treated by being dipped into the preparation of active compound of the desired concentration and populated with caterpillars of the diamond-back moth (Plutella xylostella) while the leaves are still moist.
After 7 days, the kill is determined and expressed in per cent. An efficacy of 100% means that all caterpillars have been killed, while an efficacy of 0% means that none of the caterpillars have been killed.

Venturia inaequalis = assay: Venturia Test (Apple)/protective; format: in vivo; details: young apple plants sprayed at 100 g/ha, protective; evaluation 12 days after inoculation
Description: Venturia Test (Apple)/protective
as §1
To test for protective activity, young plants are sprayed with the preparation of active compound at the stated application rate. After the spray coating has dried on, the plants are inoculated with an aqueous conidia suspension of the causative organism of apple scab Venturia inaequalis and then remain in an incubation cabin at approximately 20° C. and 100% relative atmospheric humidity for 1 day.
The plants are then placed in a greenhouse at approximately 21° C. and a relative atmospheric humidity of approximately 90%.
Evaluation is carried out 12 days after the inoculation. 0% means an efficacy which corresponds to that of the control, while an efficacy of 100% means that no infection is observed.

Leptosphaeria nodorum = Leptosphaeria nodorum Test (Wheat)/protective; format: in vivo; details: young wheat plants sprayed at 250 g/ha, protective; evaluation 10 days after inoculation
Description: Leptosphaeria nodorum Test (Wheat)/protective
as §1
To test for protective activity, young plants are sprayed with the preparation of active compound at the stated application rate. After the spray coating has dried on, the plants are sprayed with a spore suspension of Leptosphaeria nodorum. The plants remain in an incubation cabin at 20° C. and 100% relative atmospheric humidity for 48 hours.
The plants are then placed in a greenhouse at a temperature of approximately 15° C. and a relative atmospheric humidity of 80%.
Evaluation is carried out 10 days after the inoculation. 0% means an efficacy which corresponds to that of the control, while an efficacy of 100% means that no infection is observed.

Structure (SMILES)	melting point	Kill in % after 7 d [3]	also measured
O=C(NCCOS(=O)OCCNC(=O)c1snc(Cl)c1Cl)c1snc(Cl)c1Cl	70 to 75 °C	–	–
CC(C)(C)CSCc1ccc(NC(=O)c2snc(Cl)c2Cl)cc1	91 to 92 °C	–	–
CCC(CC)c1ccc(NC(=O)c2snc(Cl)c2Cl)cc1	98 to 99 °C	–	–
CN(C=O)CNC(=O)c1snc(Cl)c1Cl	87 to 88 °C	–	–
Cc1ccc(NC(=O)c2snc(Cl)c2Cl)c(C)c1	171 to 172 °C	–	–
CC(C)(C)c1ccc(NC(=O)c2snc(Cl)c2Cl)cc1 [Example 3]	148 to 149 °C	–	Kill in % after 7 d [1]: 100%
CC(C)(C)c1ccc(CCNC(=O)c2snc(Cl)c2Cl)cc1 [Example 4]	–	100%	chromatographic logP [2]: 4.81
O=C(NCCc1cccc(Oc2ccc(Cl)cc2)c1)c1snc(Cl)c1Cl [Example 6]	–	–	chromatographic logP [2]: 4.79; Efficacy in % (Venturia inaequalis): 96%
CCN(CC)Cc1ccc(CNC(=O)c2snc(Cl)c2Cl)cc1 [Example 14]	–	100%	chromatographic logP [2]: 1.39
CCC(C)c1ccc(NC(=O)c2snc(Cl)c2Cl)cc1 (stereo not drawn) [Example 16]	83 to 85 °C	–	Efficacy in % (Leptosphaeria nodorum): 81%
O=C(Nc1ccccc1C1CCCCCC1)c1snc(Cl)c1Cl [Example 20]	122 to 125 °C	100%	–
O=C(Nc1ccccc1-c1ccccc1)c1snc(Cl)c1Cl [Example 21]	83 to 84 °C (dec.)	100%	–
O=C(NCCc1ccc(-c2ccc(Cl)cc2)cc1)c1snc(Cl)c1Cl [Example 23]	135 to 136 °C	100%	–
